Reference: ChEMBL document CHEMBL5380875, “Discovery of a Potent and Oral Available Complex I OXPHOS Inhibitor That Abrogates Tumor Growth and Circumvents MEKi Resistance” (J Med Chem, 2023)

Key:
NCI-H460 [1] = test: Inhibition of mitochondrial complex I NADH-ubiquinone oxidoreductase in human NCI-H460 cells at 1 uM incubated for 12 hrs by seahorse XF96 metabolic flux analyzer relative to control; format: cell-based
NCI-H460 [2] = test: Inhibition of mitochondrial complex IV in human NCI-H460 cells at 1 uM incubated for 12 hrs by seahorse XF96 metabolic flux analyzer relative to control; format: cell-based
NCI-H460 [3] = test: Antiproliferative activity against human NCI-H460 cells with high-OXPHOS assessed as reduction in cell viability incubated for 5 days by CellTiter 96 cell proliferation assay; format: functional, cell-based; conditions: NCI-H460, 120 h
NCI-H358 = test: Antiproliferative activity against human NCI-H358 cells with low-OXPHOS assessed as reduction in cell viability incubated for 5 days by CellTiter 96 cell proliferation assay; format: functional, cell-based; conditions: NCI-H358, 120 h
NCI-H460 [4] = test: Inhibition of mitochondrial complex I NADH-ubiquinone oxidoreductase in human NCI-H460 cells assessed as reduction in NAD+/NADH ratio at 1 uM incubated for 12 hrs by WST-8 method relative to control; format: cell-based
NCI-H460 [5] = test: Inhibition of mitochondrial complex II in human NCI-H460 cells at 1 uM incubated for 12 hrs by seahorse XF96 metabolic flux analyzer relative to control; format: cell-based
NCI-H460 [6] = test: Inhibition of mitochondrial complex III in human NCI-H460 cells at 1 uM incubated for 12 hrs by seahorse XF96 metabolic flux analyzer relative to control; format: cell-based
A549 [7] = test: Cytotoxicity against human Trametinib-resistant A549 cells assessed as reduction in cell viability incubated for 72 hrs by CellTiter 96 cell proliferation assay; format: functional, cell-based; conditions: A549, 72 h
A549 [8] = test: Induction of apoptosis in human Trametinib-resistant A549 cells with high-OXPHOS harboring KRAS G12S mutant assessed as early apoptotic cells at 500 nM incubated for 72 hrs by Annexin V-FITC/propidium iodide staining based flow cytometry analysis (reference value: 4.31%); format: functional
A549 [9] = test: Induction of apoptosis in human Trametinib-resistant A549 cells with high-OXPHOS harboring KRAS G12S mutant assessed as late apoptotic cells at 500 nM incubated for 72 hrs by Annexin V-FITC/propidium iodide staining based flow cytometry analysis (reference value: 4.27%); format: functional
NCI-H460 [10] = test: Induction of apoptosis in human NCI-H460 cells with high-OXPHOS harboring KRAS Q61H mutant assessed as late apoptotic cells at 500 nM incubated for 72 hrs by Annexin V-FITC/propidium iodide staining based flow cytometry analysis (reference value: 5.68%); format: functional
NCI-H460 [11] = test: Induction of apoptosis in human NCI-H460 cells with high-OXPHOS harboring KRAS Q61H mutant assessed as early apoptotic cells at 500 nM incubated for 72 hrs by Annexin V-FITC/propidium iodide staining based flow cytometry analysis (reference value: 1.95%); format: functional
A549 [12] = test: Cytotoxicity against human A549 cells assessed as reduction in cell viability incubated for 72 hrs by CellTiter 96 cell proliferation assay; format: functional, cell-based; conditions: A549, 72 h

Cc1c(C(=O)N2CCN(Cc3ccc(OCC(F)(F)F)cc3)CC2)nnn1Cc1ccc(C(=O)Nc2ccc(C(C)(C)C)cc2)nc1 showed an inhibition (NCI-H460 [1]) of 45%.

In the case of Cc1c(C(=O)N2CCN(Cc3ccc(OCC(F)(F)F)cc3)CC2)nnn1Cc1ccc(C(=O)Nc2ccc(Cl)cc2)nc1, the inhibition (NCI-H460 [2]) is reported as 26%, the IC50 (NCI-H460 [3]) is reported as 7.6 nM and the IC50 (NCI-H358) is reported as > 1000 nM. The inhibition (NCI-H460 [4]) was 72.5%, the inhibition (NCI-H460 [5]) was 13.5% and the inhibition (NCI-H460 [6]) was 30.3%. For the same molecule, the inhibition (NCI-H460 [1]) was 60.1%.

Cc1c(C(=O)N2CCN(Cc3ccccc3OCC(F)(F)F)CC2)nnn1Cc1ccc(C(=O)Nc2ccc(C(F)(F)F)cc2)nc1 was tested, and the inhibition (NCI-H460 [1]) was 6.7%.

Work on Cc1c(C(=O)N2CCN(Cc3ccc(OC(F)(F)F)cc3)CC2)nnn1Cc1ccc(C(=O)Nc2ccc(C(F)(F)F)cc2)nc1 yielded an inhibition (NCI-H460 [1]) of 50.5%.

Cc1c(C(=O)N2CCN(Cc3ccc(OCC(F)(F)F)cc3)CC2)nnn1Cc1ccc(C(=O)Nc2ccc(OC(F)(F)F)cc2)nc1 was tested, and the inhibition (NCI-H460 [2]) was -6.7%, the IC50 (NCI-H460 [3]) was 6.3 nM and the IC50 (NCI-H358) was 856 nM. The inhibition (NCI-H460 [4]) was 74.2%, the inhibition (NCI-H460 [5]) was 8.8% and the inhibition (NCI-H460 [6]) was 9%. The inhibition (NCI-H460 [1]) was 58.4%.

Cc1c(C(=O)N2CCN(Cc3ccc(C(C)(C)C)cc3)CC2)nnn1Cc1ccc(C(=O)Nc2ccc(C(F)(F)F)cc2)nc1 was tested, and the inhibition (NCI-H460 [2]) was 12.2%, the IC50 (NCI-H460 [3]) was 7.8 nM and the IC50 (NCI-H358) was > 1000 nM. The inhibition (NCI-H460 [4]) was 73.2%, the inhibition (NCI-H460 [5]) was -0.9% and the inhibition (NCI-H460 [6]) was 17.8%. For the same molecule, the inhibition (NCI-H460 [1]) was 50.5%.

Work on CC(=O)Nc1cccc(-n2c(=O)n(C3CC3)c(=O)c3c(Nc4ccc(I)cc4F)n(C)c(=O)c(C)c32)c1 [TRAMETINIB] yielded an IC50 (A549 [7]) of 38100 nM, an Activity (A549 [8]) of 6.94% and an Activity (A549 [9]) of 15.6%. The Activity (NCI-H460 [10]) was 8.3%, the Activity (NCI-H460 [11]) was 2.51% and the IC50 (A549 [12]) was 296 nM.

With O=C(Nc1ccc(C(F)(F)F)cc1)c1ccc(Cn2nnc(C(=O)N3CCN(Cc4ccc(OCC(F)(F)F)cc4)CC3)c2C(F)(F)F)cn1 the inhibition (NCI-H460 [2]) was 1.6%, the IC50 (NCI-H460 [3]) was 3.8 nM and the IC50 (NCI-H358) was 605 nM. The inhibition (NCI-H460 [4]) was 85.1%, the inhibition (NCI-H460 [5]) was 4.7% and the inhibition (NCI-H460 [6]) was 12.1%. For the same molecule, the inhibition (NCI-H460 [1]) was 59.3%.

Work on Cc1nnn(Cc2ccc(C(=O)Nc3ccc(F)cc3)nc2)c1C(=O)N1CCN(Cc2ccc(OCC(F)(F)F)cc2)CC1 yielded an inhibition (NCI-H460 [1]) of 9%.

Molecule Cc1c(C(=O)N2CCN(Cc3cccc(OCC(F)(F)F)c3)CC2)nnn1Cc1ccc(C(=O)Nc2ccc(C(F)(F)F)cc2)nc1 has an inhibition (NCI-H460 [1]) of 49.9%.

In the case of CCc1c(C(=O)N2CCN(Cc3ccc(OCC(F)(F)F)cc3)CC2)nnn1Cc1ccc(C(=O)Nc2ccc(C(F)(F)F)cc2)nc1, the inhibition (NCI-H460 [1]) is reported as 42.6%.

Work on CCN1CCN(C(=O)c2nnn(Cc3ccc(C(=O)Nc4ccc(C(F)(F)F)cc4)nc3)c2C)CC1 yielded an inhibition (NCI-H460 [1]) of -4.1%.

Work on Cc1c(C(=O)N2CCN(Cc3ccc(OCC(F)(F)F)cc3)CC2)nnn1Cc1ccc(C(=O)Nc2ccccc2C(F)(F)F)nc1 yielded an inhibition (NCI-H460 [1]) of 36.3%.

For Cc1nnn(Cc2ccc(C(=O)Nc3ccc(OC(F)(F)F)cc3)nc2)c1C(=O)N1CCN(Cc2ccc(OCC(F)(F)F)cc2)CC1, the inhibition (NCI-H460 [1]) was 20.4%.

Cc1c(C(=O)N2CCN(Cc3ccc(Cl)cc3)CC2)nnn1Cc1ccc(C(=O)Nc2ccc(C(F)(F)F)cc2)nc1 showed an inhibition (NCI-H460 [2]) of 8.9%, an inhibition (NCI-H460 [5]) of 6.8% and an inhibition (NCI-H460 [6]) of 3.5%. For the same molecule, the inhibition (NCI-H460 [1]) was 20.4%.

Cc1c(C(=O)N2CCN(S(C)(=O)=O)CC2)nnn1Cc1ccc(C(=O)Nc2ccc(C(F)(F)F)cc2)nc1 was tested, and the inhibition (NCI-H460 [1]) was 20.4%.

In the case of O=C(Nc1ccc(C(F)(F)F)cc1)c1ccc(Cn2nnc(C(=O)N3CCN(Cc4ccc(OCC(F)(F)F)cc4)CC3)c2-c2ccccc2)cn1, the inhibition (NCI-H460 [1]) is reported as 12.6%.
